Assay [1] has as its system MOLM-13 cells. Kind of assay: Lenalidomide competition assay (40 μM lenalidomide), MOLM-13 viability. Format: cell-based, human. Conditions: lenalidomide 40 μM. How it is done:
Having identified SJ7095 as a compound with a potent antiproliferative effect in MOLM-13 cells, we next examined whether the observed effect was CRBN-dependent. […] In an orthogonal approach, we tested SJ7095 in wild-type and CRBN-knockout MOLM-13 cells in a cell viability assay (Supplementary Fig. 1b).
MOLM-13 cells were plated in Corning 8804BC white 384-well assay plates at the appropriate cell number per well and incubated overnight at 37 °C in a humidified 5 % CO2 incubator. Compounds were transferred to the assay plate from a dose-response plate using a Labcyte Echo 650 Acoustic Liquid Handler (Beckman Coulter , USA). Cytotoxicity was determined following 72 h of incubation using Promega’s CellTiter-Glo reagent according to the manufacturer’s recommendation.
Luminescence was measured on the Envision plate reader (PerkinElmer, USA). Raw luminescence relative light unit (RLU) values for each compound at each concentration were normalized to obtain % activity using the following equation (1): 100 × [(mean(negctrl) – compound)/(mean (negctrl) – mean (posctrl))]. The % activity was converted to % viability using the following equation (2):
(100 – % activity), and then pooled from replicate experiments prior to fitting. Here, negctrl and posctrl refer to the negative (DMSO) and positive controls (staurosporine) on each plate. […]

The target of assay [2] is CK1α (Homo sapiens, UniProt P48729+Q96SW2). Description: In vivo PD: CK1α protein levels in MOLM-13 xenograft (western blot of human cells from bone marrow). Set-up: quantified western blots of isolated human cells from the bone marrow of treated mice; endogenous in cells; host or cells: MOLM-13 xenograft cells from NSG mouse bone marrow, murine cells depleted; species or system NSG mice engrafted with MOLM-13 cells. Conditions: for CK1a quantified western blot signal, group mean (Mean 2): n 3, DMSO mean 0.9882; for CK1a quantified western blot signal, individual animals: relative to DMSO; for CK1α protein level in vivo: 48 h. How it is done: For the PD experiment, NSG mice engrafted with MOLM-13 cells were treated for 48 h with SJ3149 or DMSO vehicle in 4 groups: vehicle, 50 mg/kg once per day, or vehicle or 50 mg/kg twice per day (Fig. 6). After 48 h, the mice were sacrificed and human cells were isolated from the collected bone marrow and lysed for western blot analysis.
(§1) For the xenograft transplantation study, female NSG mice (NOD.Cg-Prkdc^scid Il2rg^tm1Wjl/SzJ, Strain #005557, The Jackson Laboratory) aged 6–8 weeks were transplanted with 100,000 MOLM-13 cells by tail-vein injection. 10 days post-transplantation, mice were treated with SJ3149 via intraperitoneal injections for the following 2-day dosing schedule: 50 mg/kg (1 dose every 12 h), and 50 mg/kg (1 dose every 24 h) with n = 3 per group. Control groups (n = 3) were treated with DMSO either 1 dose every 24 h or 1 dose every 12 h with equal volume as treatment groups. Mice were euthanized 48 h after the first treatment and bone marrow cells were collected. Murine cells were depleted using the EasySep Mouse/Human Chimera isolation kit ([…] Technologies #19849). NSG mice were housed in microisolation cages and kept under barrier conditions to keep them specific pathogen-free. The lights for NSG mice are on an automated 12-h on, 12-h off light cycle. The mouse room has a separate thermostat and humidistat to control temperature and humidity at the room level. Sex was not considered beyond female mice being most commonly used for cell line-derived xenografts. Ethical approval by the St. Jude Institutional Animal Care and Use Committee.
as §1, with “Female” for “For the xenograft transplantation study, female”

Where “and” joins values, the source holds several entries; their conditions need not be identical. Equal entries are not always repeated.

Sequence of CK1α (P48729 whole entry): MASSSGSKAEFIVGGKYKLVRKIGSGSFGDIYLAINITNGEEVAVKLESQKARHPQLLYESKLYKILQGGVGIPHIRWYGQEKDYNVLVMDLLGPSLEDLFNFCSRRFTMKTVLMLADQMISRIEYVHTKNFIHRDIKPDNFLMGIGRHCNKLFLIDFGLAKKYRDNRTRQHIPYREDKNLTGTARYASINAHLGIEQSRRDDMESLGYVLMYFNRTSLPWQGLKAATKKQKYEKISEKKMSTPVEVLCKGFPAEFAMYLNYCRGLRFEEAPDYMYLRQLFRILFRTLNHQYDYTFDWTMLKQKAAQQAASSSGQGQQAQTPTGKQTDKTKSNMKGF
Sequence of CK1α (Q96SW2 whole entry): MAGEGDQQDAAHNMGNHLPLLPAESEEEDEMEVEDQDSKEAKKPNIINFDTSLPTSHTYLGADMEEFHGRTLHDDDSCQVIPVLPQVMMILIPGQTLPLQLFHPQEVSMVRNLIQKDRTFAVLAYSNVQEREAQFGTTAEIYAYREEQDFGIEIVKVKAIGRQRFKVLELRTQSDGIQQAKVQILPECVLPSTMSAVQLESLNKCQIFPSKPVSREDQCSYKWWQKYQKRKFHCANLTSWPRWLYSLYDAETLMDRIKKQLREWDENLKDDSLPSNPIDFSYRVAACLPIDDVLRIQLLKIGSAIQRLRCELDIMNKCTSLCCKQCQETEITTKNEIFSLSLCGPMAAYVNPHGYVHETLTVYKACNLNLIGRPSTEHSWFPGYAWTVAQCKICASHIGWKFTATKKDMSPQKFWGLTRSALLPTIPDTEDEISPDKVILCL
Sequence of CK1α (Q16531 whole entry partner): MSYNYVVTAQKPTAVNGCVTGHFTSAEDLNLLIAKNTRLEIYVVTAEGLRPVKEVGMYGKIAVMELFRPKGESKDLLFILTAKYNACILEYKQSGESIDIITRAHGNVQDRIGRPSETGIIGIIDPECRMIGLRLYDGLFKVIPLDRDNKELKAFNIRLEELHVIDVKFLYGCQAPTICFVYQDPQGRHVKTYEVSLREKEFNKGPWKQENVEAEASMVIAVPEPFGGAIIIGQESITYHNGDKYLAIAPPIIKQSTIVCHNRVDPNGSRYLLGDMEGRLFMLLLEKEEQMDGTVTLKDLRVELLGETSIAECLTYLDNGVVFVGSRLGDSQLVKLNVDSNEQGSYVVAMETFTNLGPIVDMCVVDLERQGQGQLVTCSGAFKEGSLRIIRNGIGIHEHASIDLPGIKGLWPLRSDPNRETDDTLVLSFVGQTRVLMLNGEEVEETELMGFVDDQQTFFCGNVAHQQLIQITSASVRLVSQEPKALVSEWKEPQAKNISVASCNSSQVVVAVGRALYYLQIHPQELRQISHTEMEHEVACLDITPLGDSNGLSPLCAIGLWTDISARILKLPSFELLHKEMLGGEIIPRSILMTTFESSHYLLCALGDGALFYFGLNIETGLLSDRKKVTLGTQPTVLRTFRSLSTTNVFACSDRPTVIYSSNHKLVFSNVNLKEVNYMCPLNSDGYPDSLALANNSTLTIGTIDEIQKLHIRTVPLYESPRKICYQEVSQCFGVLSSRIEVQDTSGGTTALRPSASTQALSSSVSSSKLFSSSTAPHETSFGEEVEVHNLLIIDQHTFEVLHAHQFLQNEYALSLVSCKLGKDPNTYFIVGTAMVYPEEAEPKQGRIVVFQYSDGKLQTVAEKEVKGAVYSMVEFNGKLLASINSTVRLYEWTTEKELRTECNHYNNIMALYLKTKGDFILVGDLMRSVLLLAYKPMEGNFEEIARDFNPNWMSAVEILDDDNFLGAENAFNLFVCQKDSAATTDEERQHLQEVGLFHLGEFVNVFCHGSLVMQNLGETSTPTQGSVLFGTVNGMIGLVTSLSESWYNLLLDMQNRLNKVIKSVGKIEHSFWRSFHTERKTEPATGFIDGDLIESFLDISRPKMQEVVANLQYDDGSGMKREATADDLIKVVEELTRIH

With `O=C1CCC(N2Cc3c(CNC(=O)c4ccc(F)cc4)cccc3C2=O)C(=O)N1` (stereo not drawn) [SJ7095], in assay [1], the “Antiproliferative effect in presence of excess lenalidomide” value was “abrogating the antiproliferative effects”.

For `O=C1CCC(N2Cc3cc(Nc4noc5ccccc45)ccc3C2=O)C(=O)N1` (stereo not drawn) [SJ3149], the “CK1a quantified western blot signal, group mean (Mean 2)” value in assay [2] (50 mg/kg 1x/day) stood at 0.3507; in assay [2] (50 mg/kg 2x/day), 0.212; in assay [2] (100 mg/kg 1x/day), 0.4998. In addition, the “CK1a quantified western blot signal, individual animals” value in assay [2] (50 mg/kg 1x/day) is 0.2018 and 0.4461 and 0.4041; in assay [2] (50 mg/kg 2x/day), 0.07248 and 0.5016 and 0.06191; in assay [2] (100 mg/kg 1x/day) it was 0.1574 and 0.8298 and 0.5123. For the same compound, the “CK1α protein level in vivo” value in assay [2] (IP 50 mg/kg once per day) and in assay [2] (IP 50 mg/kg twice per day) was “significant degradation of CK1α” throughout.
